Peptide text beside a SMILES is read from it. * marks the point of attachment. X1 = O=C(C[NH+]1CC[NH2+][Pt-2]1([Cl])[Cl])*
Experiments:
[1] = system: MCF-7 cells; assay: Quantitative determination by atomic absorption of cisplatin transported into tumour cells; format: cell-based, human
Procedure: The target cells MCF-7 were trypsinized, washed twice with buffered solution (PBS) and treated with 50 μl of 35% HNO3 for 16 hours. The platin content was determined by subjecting the samples to atomic absorption with an Analyst 800 instrument, by Perkin-Elmer, Norwalk, Conn., USA, using the following parameters: pre-treatment temperature, 1300° C.; atomization temperature, 2200° C.; using as the matrix modifier a composition of 0.015 mg of […] with 0.01 mg of Mg(NO3)2. The measurements were performed using the “Zeeman-effect background” correction system with Pyrolytic graphite-coated THGA tube (Perkin Elmer) and an integrated Lvov-type platform was used for metal determination. As standard solution we used a 2.5% HNO3 solution (Spectrascan) to obtain three reference points on the calibration curve.

[2] = system: tumour cell lines (MCF7, M1735, MRC5 and A2780); assay: Immunocytochemistry with anti-leader peptide antibody on treated cell lines (FIG. 1); format: cell-based, human; details: immunohistochemical reaction, three hours of incubation
Procedure: The target cells (MCF-7) in continuous culture, derived from a mammary tumour of human origin, were incubated for three hours in the presence or absence of: (a) 24-amino acid leader peptide of rMnSOD-Lp-CC not conjugated to any other molecules, (b) 24-amino acid leader peptide conjugated to cisplatin.
After incubation, the cells were fixed with Zamboni fixative (solution composed of 4% paraformaldehyde+15% picric acid) for 60 minutes and washed with PBS. The cells were then maintained in PBS containing 0.3% hydrogen peroxide, with the aim of blocking endogenous peroxidases. The polyclonal antibody (anti-leader peptide of rMnSOD obtained from rabbit), diluted 1/200 was then added to the cells and left for 1 hour at ambient temperature. To develop the reaction, a DAKO SLAB Peroxidase K0679 kit was used.

[3] = system: Bax gene, normal cells; assay: Bax gene expression in normal cells (FIG. 2); format: cell-based
From the text: FIG. 2 confirms the apoptotic action of the rMnSOD-Lp-CC complex on various cell lines.
In the experiment, actin cDNA was inserted as control of quantitative DNA expression; to note that again in this case (a) indicates untreated cells, (b) indicates cells treated with the leader peptide of rMnSOD (b), and (c) indicates cells treated with the leader peptide conjugated to cisplatin.

[4] = system: tumour cells; details: recent study, state of the art; cited from earlier work

For “MLSRAVCGTSRQLAPALGYLGSRQ [leader peptide of rMnSOD]”, the “quantity of cisplatin transported into cells relative to cisplatin alone” value ([1]; tumour cells, Table 1) was “double” and the “penetration into tumour cells / cell damage” value [2] was “penetrated tumour cells without damaging the cells”.

For CSCC[C@H](NC(=O)C[NH+]1CC[NH2+][Pt-2]1([Cl])[Cl])C(=O)N[C@@H](CC(C)C)C(=O)N[C@@H](CO)C(=O)N[C@@H](CCCNC(=N)N)C(=O)N[C@@H](C)C(=O)N[C@H](C(=O)N[C@@H](CS)C(=O)NCC(=O)N[C@H](C(=O)N[C@@H](CO)C(=O)N[C@@H](CCCNC(=N)N)C(=O)N[C@@H](CCC(N)=O)C(=O)N[C@@H](CC(C)C)C(=O)N[C@@H](C)C(=O)N1CCC[C@H]1C(=O)N[C@@H](C)C(=O)N[C@@H](CC(C)C)C(=O)NCC(=O)N[C@@H](Cc1ccc(O)cc1)C(=O)N[C@@H](CC(C)C)C(=O)NCC(=O)N[C@@H](CO)C(=O)N[C@@H](CCCNC(=N)N)C(=O)N[C@@H](CCC(N)=O)C(=O)O)[C@@H](C)O)C(C)C (some centres unmarked) [rMnSOD-Lp-CC] (X1-MLSRAVCGTSRQLAPALGYLGSRQ-OH), the “toxic reaction / Bax gene expression” value [3] was “does not induce any toxic reaction”.

For N.N.[Cl][Pt][Cl] [Cisplatin, cisplatin], the “quantity of Pt, MCF-7 Pellet” value ([1]; MCF-7 Pellet, atomic absorption) was 2.3 ng-Pt ng Pt, the “quantity of cisplatin, MCF-7 Solution” value ([1]; MCF-7 Solution, atomic absorption) was “Cisplatin 8.7 μg/l” and the “quantity of Pt, MCF-7 Solution” value ([1]; MCF-7 Solution, atomic absorption, value in brackets) was “(3.5 μg Pt)”.

B1: LSA-type-MnSOD: manganese superoxide dismutase secreted by a liposarcoma cell line, 30 kDa (protein, UniProt P04179 25-222, looked up)
Superoxide dismutase [Mn], …: KHSLPDLPYDYGALEPHINAQIMQLHHSKHHAAYVNNLNVTEEKYQEALAKGDVTAQIALQPALKFNGGGHINHSIFWTNLSPNGGGEPKGELLEAIKRDFGSFDKFKEKLTAASVGVQGSGWGWLGFNKERGHLQIAACPNQDPLQGTTGLIPLLGIDVWEHAYYLQYKNVRPDYLKAIWNVINWENVTERYMACKK
For B1, the “cytotoxicity to tumour cells” value [4] is given as “cytotoxic specifically and selectively to tumour cells”.

B2: rMnSOD: recombinant form of LSA-type-MnSOD produced by specific cDNA clones (protein, UniProt P04179 25-222, looked up)
Superoxide dismutase [Mn], …: B1 Superoxide dismutase [Mn], …
For B2, the “cytotoxicity to tumour cells” value [4] is given as “retain the structural and oncotoxic properties of the native protein”.
